From PMC7251097, “Aspartate/asparagine-β-hydroxylase: a high-throughput mass spectrometric assay for discovery of small molecule inhibitors” (Scientific Reports, 2020)
Structures can show the parent of a compound that is named as a salt. Where two headings read alike, the source gives them in different places.

Molecular target: T1, His6-AspH315–758 (human aspartate/asparagine-β-hydroxylase, AspH) (Homo sapiens, UniProt Q12797)
T1 construct: N-Terminally His6-tagged human AspH315–758 (His6-AspH315–758) was produced in E. coli BL21 (DE3) cells; made in house; host or cells: E. coli BL21 (DE3), pET-28a(+) vector
T1 sequence (Q12797 315-758): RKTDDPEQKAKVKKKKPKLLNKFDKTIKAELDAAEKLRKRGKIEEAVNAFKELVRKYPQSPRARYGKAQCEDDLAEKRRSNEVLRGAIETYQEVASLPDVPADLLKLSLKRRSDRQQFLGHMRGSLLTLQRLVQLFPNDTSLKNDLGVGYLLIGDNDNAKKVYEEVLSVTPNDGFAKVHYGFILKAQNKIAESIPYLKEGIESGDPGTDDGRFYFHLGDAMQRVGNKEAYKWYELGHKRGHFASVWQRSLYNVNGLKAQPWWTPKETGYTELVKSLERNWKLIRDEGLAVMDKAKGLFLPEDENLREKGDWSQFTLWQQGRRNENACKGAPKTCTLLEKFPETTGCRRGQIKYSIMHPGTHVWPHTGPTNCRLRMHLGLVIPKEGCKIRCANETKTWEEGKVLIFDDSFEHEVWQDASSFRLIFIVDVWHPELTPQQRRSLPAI
Experiment: SPE-MS AspH inhibition assay (LOPAC screen at fixed 20 μM and IC50 dose-response), hydroxylation of cyclic peptide hFX-CP101–119
Type: biochemical
Details: for Inhibition at 20 µM [%]: AspH activity, fixed compound concentration 20 μM, initial LOPAC screen, 0.5%v/v DMSO; for IC50: read-out: IC50

[1] = LOPAC Plate 4, compound at 20 uM
[2] = LOPAC Plate 4, compound at 20 uM, substrate conversion
[3] = plate 5 (Pfitzer), test compounds at fixed 20 μM
[4] = plate 5 (Pfitzer), test compounds at fixed 20 μM, mean conversion DMSO 32.88
[5] = LOPAC compound at fixed 20 uM, plate 1, normalised to DMSO and 2,4-PDCA controls
[6] = LOPAC compound at fixed 20 uM, substrate conversion, plate 1
[7] = LOPAC compound at 20uM, plate 2, normalised to DMSO and 2,4-PDCA controls, read-out: Plate 2 (% inhibition)
[8] = LOPAC compound at 20uM, plate 2, conversion of substrate peptide
[9] = LOPAC compound at 20uM, plate 3, conversion of substrate peptide
[10] = LOPAC compound at 20uM, plate 2, normalised to DMSO and 2,4-PDCA controls
[11] = 50 nM His6-AspH315–758, 1.0 μM hFX-CP101–119, 3 μM 2OG, 2 μM Fe(II), 50 mM HEPES pH 7.5, 20 °C, mean ± SD, n = 2 (2,4-PDCA n = 10)

NCCc1c[nH]c2ccc(C(N)=O)cc12.O=C(O)/C=C\C(=O)O [5-Carboxamidotryptamine maleate]
Plate 2 (% conversion): 35.62% | Plate 2 (% inhibition) (20 µM): 0.99%

CC(N)(Cc1ccc(O)cc1)C(=O)O (racemic) [DL-alpha-Methyl-p-tyrosine]
Plate 1 (% conversion): 33.46% | Plate 1 (% inhibition): 7.19%

PD-184161
% inhibition [1]: 6.57% | % conversion [2]: 34.23% | Plate 5 (% inhibition) [3]: 40.35% | Plate 5 (% conversion) [4]: 22.58%

CN(C)CCCC1(c2ccc(F)cc2)OCc2cc(C#N)ccc21 (stereo not shown) [Citalopram hydrobromide]
Plate 1 (% inhibition) [5]: -13.21% | Plate 1 (% conversion) [6]: 40.31%

O=C(O)C=Cc1c[nH]cn1 [4-Imidazoleacrylic acid]
% conversion: 20.39%

O=C1CC2(CCCC2)CC(=O)N1CCCCN1CCN(c2ncccn2)CC1 [Buspirone hydrochloride]
Plate 1 (% conversion): 40.40% | Plate 1 (% inhibition) [5]: -13.49%

CN(CCOc1ccc(NS(C)(=O)=O)cc1)CCc1ccc(NS(C)(=O)=O)cc1 [Dofetilide]
inhibition at 20 µM [7]: -3.76% | Plate 5 (% inhibition) [3]: -1.04% | Plate 5 (% conversion) [4]: 36.67%

Nc1nc(O)c2ncn(COC(CO)CO)c2n1 [Ganciclovir]
Plate 2 (% conversion) [8]: 35.57% | inhibition at 20 µM [7]: 1.14%

Cl.NCCNS(=O)(=O)c1cccc2c(Cl)cccc12 [A3 hydrochloride]
% conversion: 25.50%

O.c1cnc2c(c1)ccc1cccnc12 [1,10-Phenanthroline monohydrate, reference compound]
% conversion: 3.10% | inhibition at 20 µM: 97.8% | inhibition at 20 µM (read-out: Inhibition at 20 µM [%]): 97.8%

Cc1[nH]c(=O)c(C#N)cc1-c1ccncc1 [Milrinone]
Plate 3 (% conversion) [9]: 40.58%

O=C(c1ccc(Cl)cc1)N1CCN(c2ccc([N+](=O)[O-])c3ncccc23)CC1 [CPNQ]
Plate 2 (% conversion) [8]: 35.99% | Plate 2 (% inhibition) [10]: -0.10%

CCOc1nc2cccc(C(=O)O)c2n1Cc1ccc(-c2ccccc2-c2nnn[nH]2)cc1 [candesartan, reference compound]
IC50 [μM] [11]: no inhibition

CN(c1ccccc1CNc1nc(Nc2ccc3c(c2)CC(=O)N3)ncc1C(F)(F)F)S(C)(=O)=O [PF-431396]
Plate 5 (% inhibition) [3]: 35.16% | Plate 5 (% conversion) [4]: 24.35%

CSc1ccc2c(c1)N(CCC1CCCCN1C)c1ccccc1S2 (stereo not shown) [Thioridazine hydrochloride]
% conversion [2]: 43.98%

CCN(CC)C(=S)SSC(=S)N(CC)CC [Tetraethylthiuram disulfide]
% conversion [2]: 22.31%

NS(=O)(=O)Cc1noc2ccccc12 [Zonisamide sodium]
% conversion [2]: 32.12%

Cc1cc(Nc2ncc3cc(-c4c(Cl)cccc4Cl)c(=O)n(C)c3n2)ccc1F [PD-180970]
Plate 1 (% inhibition) [5]: -5.67% | Plate 1 (% conversion) [6]: 37.77% | Plate 5 (% inhibition) [3]: 46.58% | Plate 5 (% conversion) [4]: 20.46%

N[C@@H](Cc1c[nH]c2ccc(O)cc12)C(=O)O [5-Hydroxy-L-tryptophan]
Plate 2 (% conversion) [8]: 37.59% | inhibition at 20 µM [7]: -4.87%

CCCc1nn(C)c2c(=O)[nH]c(-c3cc(S(=O)(=O)N4CCN(C)CC4)ccc3OCC)nc12.O=C(O)CC(O)(CC(=O)O)C(=O)O [Sildenafil citrate salt]
Plate 1 (% inhibition) [5]: 83.33% | Plate 1 (% conversion) [6]: 7.89%

CNCCCC12CCC(c3ccccc31)c1ccccc12 [Maprotiline hydrochloride]
Plate 3 (% conversion) [9]: 42.77%

COc1cc2c(CCNC(C)=O)c[nH]c2cc1O [6-Hydroxymelatonin]
Plate 2 (% conversion) [8]: 36.89% | Plate 2 (% inhibition) [10]: -2.79%

Br.Cc1cccc(C2CN(C)CCc3c2cc(O)c(O)c3Cl)c1 (stereo not shown) [SKF 83959 hydrobromide, reference compound]
Inhibition at 20 µM [%]: 95.1% | % inhibition [1]: 95.13% | % conversion [2]: 4.00%

CCN1CCCC1CNC(=O)c1cc(S(N)(=O)=O)ccc1OC (racemic) [(±)-Sulpiride]
% inhibition [1]: -0.19% | % conversion [2]: 36.54%

C=CCc1cccc(/C=N/NC(=O)CN2CCN(Cc3ccccc3)CC2)c1O [PAC-1, reference compound]
IC50 [11]: 3.53 ± 0.71 µM | Inhibition at 20 µM [%]: 96.1% | % conversion [2]: 3.66%

C[N+]1(C)[C@@H]2C[C@@H](OC(=O)[C@H](CO)c3ccccc3)C[C@H]1[C@@H]1O[C@@H]12 [(-)-Scopolamine methyl bromide]
% conversion: 37.79%

CC[N+](CC)(CC)CC [Tetraethylammonium chloride]
% conversion: 26.96%

CCOC(=O)C1=C(C)NC(C)=C(C(=O)OC)C1c1cccc([N+](=O)[O-])c1 (stereo not shown) [Nitrendipine]
Plate 3 (% conversion) [9]: 38.78%

Cl.c1ccc([C@H]2CN3CCSC3=N2)cc1 [(-)-Tetramisole hydrochloride]
Plate 3 (% conversion): 32.10%

CNC(=O)c1cc2c(cn1)[nH]c1ccccc12 [N-Methyl-beta-carboline-3-carboxamide]
Plate 2 (% conversion) [8]: 36.80% | Plate 2 (% inhibition) [10]: -2.54%

COc1cc(Nc2c(C#N)cnc3cc(OCCCN4CCN(C)CC4)c(OC)cc23)c(Cl)cc1Cl [Bosutinib]
Plate 1 (% inhibition) [5]: -79.17% | Plate 1 (% conversion) [6]: 62.46% | Plate 5 (% inhibition) [3]: -77.35% | Plate 5 (% conversion) [4]: 62.64%

O=c1c2ccccc2[se]n1-c1ccccc1 [Ebselen, ebselen, reference compound]
IC50 [11]: 0.12 ± 0.01 µM

CCn1nc(C(=O)O)c(=O)c2cc3c(cc21)OCO3 [Cinoxacin]
Plate 1 (% inhibition) [5]: -6.95% | Plate 1 (% conversion) [6]: 38.21%

c1ccc(-c2cnn3cc(-c4ccc(OCCN5CCOCC5)cc4)cnc23)cc1 [DMH4]
Plate 1 (% inhibition) [5]: -35.30% | Plate 1 (% conversion) [6]: 47.73%

NC/C=C/C(=O)O [(E)-4-amino-2-butenoic acid]
% inhibition [1]: 0.14% | % conversion [2]: 36.42%

OC[C@H]1NC[C@@H](O)[C@@H]1O [1,4-Dideoxy-1,4-imino-D-arabinitol]
Plate 2 (% conversion) [8]: 35.43% | Plate 2 (% inhibition) [10]: 1.56%

CN(CCC(Oc1ccc(C(=O)c2nccs2)cc1)c1ccc(Cl)cc1)CC(=O)O (stereo not shown) [CP-802079]
Plate 5 (% conversion): 32.57% | Plate 5 (% inhibition): 11.01%

CCOC(=O)C1=C(O)C(=O)N(Cc2ccccc2)C1 [EBPC]
% conversion [2]: 36.52% | Plate 5 (% inhibition) [3]: 19.44% | Plate 5 (% conversion) [4]: 29.70%

C[C@]12CCC(=O)C=C1CC[C@@H]1[C@@H]2CC[C@@]2(C)[C@H]1CC[C@]2(O)C(=O)CO [Cortexolone]
% conversion [2]: 39.11%

CC(C)NC[C@H](O)c1ccc(O)c(O)c1.O=C(O)C(O)C(O)C(=O)O [R(-)-Isoproterenol (+)-bitartrate]
Plate 2 (% conversion) [8]: 5.85% | Plate 2 (% inhibition) [10]: 89.92%

O=C([O-])c1cc2cc(Cc3cccnc3)ccc2o1.[Na+] [Furegrelate sodium]
Plate 2 (% conversion) [8]: 36.88% | Plate 2 (% inhibition) [10]: -2.76%

Cl.O[Si](CCCN1CCCCC1)(c1ccc(F)cc1)C1CCCCC1 (stereo not shown)
Plate 2 (% conversion) [8]: 40.91% | Plate 2 (% inhibition) [10]: -14.81%

CN(C)CCCNC(=O)c1ccc(-c2cc(O)c3ncccc3c2)cc1 [ML324, reference compound]
IC50 [11]: 4.65 ± 1.28 µM

COc1ccc(CN(CCN(C)C)c2ccccn2)cc1 [Pyrilamine maleate]
Plate 3 (% conversion) [9]: 36.13%

CN1C[C@H](O)[C@@H](O)[C@H](O)[C@H]1CO [N-Methyl-1-deoxynojirimycin]
Plate 2 (% conversion) [8]: 34.79% | Plate 2 (% inhibition) [10]: 3.48%
